{"source": "patent US10264794B2", "about": "“Compositions comprising unsaturated fatty esters and uses thereof” (priority 2013, dated 2019)", "system": "ASTM test fungi", "assay": "Agar plate testing", "assay_type": "cell-based", "settings": "agar plates, 14 days at 30 C", "description": "ASTM test fungi in Petri dishes were subjected to Treatment solutions with and without unsaturated fatty esters (linoleic, oleic, linolenic and arachidonic esters as a 1:1:1:1 ratio). The agar plate test method allowed for rapid determinations of antifungal efficacy against wood-degrading strains of concern. The certified cultures were obtained from the American Type Culture Collection (ATCC) and propagated as per the product information sheets: • Irpex lacteus: ATCC number 11245, yeast medium Difco 0712 (ATCC medium no. 200) • Neolentius lepideus: ATCC number 12653, YM agar Difco 0712 (ATCC medium no. 200) • Postia poria: ATCC number 11538, YM agar Difco 0712 (ATCC medium no. 200) • Pleurotus ostreatus: ATCC number 32237, YM agar Difco 0712 (ATCC medium no. 200) • Trametes versicolor: ATCC number 42462, Hagem's-Modess medium (ATCC medium no. 479) • Gleoephyllum trabeum: ATCC number 11539, Potato Dextrose Agar with 0.5% yeast extract (ATCC medium no. 337)\nEach plate was then inoculated in a flame induced sterile environment with a 5 mm diameter agar plug fungal colony of those fungi listed. […] The plates were incubated for 14 days at 30 C and the presence or absence of fungal growth was noted and measured."}
{"smiles": "Oc1c(Cl)c(Cl)c(Cl)c(Cl)c1Cl", "note": "[PCP, pentachlorophenol]", "values": [{"measurement": "growth of fungi", "value": "completely inhibited"}]}
